Measurements from article PMC7497086, “Fluorophore‐Labeled Cyclic Nucleotides as Potent Agonists of Cyclic Nucleotide‐Regulated Ion Channels” (Chembiochem, 2020).

What was measured:
Type in all cases: biochemical
[1] = target: T1, homotetrameric olfactory CNG channels (Rattus norvegicus, UniProt Q00195); test: Confocal patch-clamp fluorometry (cPCF): ligand binding and activation, homotetrameric CNG channels; conditions: Figure 4B
T1 construct: expressed in transfected cells; host or cells: Xenopus laevis oocytes injected with CNGA2 cRNA
T1 sequence (Q00195 1-664): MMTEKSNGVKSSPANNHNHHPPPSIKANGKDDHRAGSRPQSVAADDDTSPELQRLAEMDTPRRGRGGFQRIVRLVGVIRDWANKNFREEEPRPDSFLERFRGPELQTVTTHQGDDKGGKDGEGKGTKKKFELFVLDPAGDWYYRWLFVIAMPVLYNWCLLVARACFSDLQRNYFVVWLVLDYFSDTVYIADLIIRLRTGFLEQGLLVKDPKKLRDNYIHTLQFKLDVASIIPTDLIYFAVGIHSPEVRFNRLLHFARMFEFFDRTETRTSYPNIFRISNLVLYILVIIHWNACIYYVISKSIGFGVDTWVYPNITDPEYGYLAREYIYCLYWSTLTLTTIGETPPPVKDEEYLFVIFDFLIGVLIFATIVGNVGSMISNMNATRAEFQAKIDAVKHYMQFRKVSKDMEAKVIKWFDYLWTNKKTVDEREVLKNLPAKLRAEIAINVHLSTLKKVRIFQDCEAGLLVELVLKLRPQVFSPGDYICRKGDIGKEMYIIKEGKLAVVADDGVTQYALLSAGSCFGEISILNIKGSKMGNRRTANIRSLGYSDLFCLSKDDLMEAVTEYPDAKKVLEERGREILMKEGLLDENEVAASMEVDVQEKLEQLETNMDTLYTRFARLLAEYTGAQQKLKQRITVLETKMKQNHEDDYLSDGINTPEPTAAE
Text: (§1) As expected from the above data, the binding profile of 10 was similar for the two different types of ion channels, yielding similar BC 50 and H b values.
(§2) Confocal patch‐clamp fluorometry: Ionic current and binding of the fluorescent ligand in macropatches were simultaneously measured by cPCF as described before.2a, 2b The patch pipettes were pulled from borosilicate glass tubing with an outer and inner diameter of 2.0 and 1.0 mm (Hilgenberg GmbH, Malsfeld, Germany). After fire polishing, the corresponding pipette resistance was 0.7–1.2 MΩ. The bath and pipette solution contained (in mM): 150 KCl, 1 EGTA, 5 HEPES (pH 7.4) for CNG channel measurements. To distinguish the fluorescence of the unbound fluorescent ligand from that of the bound fluorescent ligands, the fluorescent dye DY647 was added to the bath solution at a concentration of 5 μM. The fluorescent ligand and DY647 were excited at 543 and 633 nm, respectively, with a HeNe laser system and an AchroGate beam splitter. Fluorescence intensity from the bath and pipette solution were normalized on each other and the surplus of the green fluorescence of the patch dome with respect to the red fluorescence was used to quantify the bound ligands. The actual relative fluorescence (F) was normalized in each patch with respect to the maximum relative fluorescence (F max) at a saturating concentration of the fluorescent ligand. […]

[2] = target: T2, Heterotetrameric CNGA2:A4:B1b channels (Rattus norvegicus, UniProt A0A8I5ZN27+Q00195+Q64359); test: Patch-clamp activation of heterotetrameric olfactory CNGA2:A4:B1b channels, inside-out patches of Xenopus oocytes; conditions: inside-out patches, +10 mV
T2 construct: expressed in transfected cells; host or cells: Xenopus laevis oocytes injected with cRNA (CNGA2:CNGA4:CNGB1b at 2:1:1)
Protocol: First, the effect of the compounds on olfactory CNG channels with natural composition was tested. […] To determine the potency of the ligands, full concentration‐activation relationships were generated. These relationships were fitted with Equation 1 (Experimental Section), yielding the concentration of half maximum activation (EC 50) and the Hill coefficient (H a).
(§3) Molecular biology and heterologous expression of CNG and HCN channels: The subunits CNGA2 (accession No. AF126808), CNGA4 (accession no. U12623) and CNGB1b (accession no. AF068572) of rat olfactory channels as well as mouse HCN2 channels (NM008226) were subcloned in front of the T7 promoter of pGEMHEnew. The corresponding cRNAs were produced with the mMESSAGE mMACHINE T7 Kit (Ambion, Austin, TX, USA).
(§4) Oocytes at stages IV and V were injected with 50–130 ng cRNA encoding either CNGA2, CNGA2 : CNGA4 : CNGB1b (2 : 1 : 1 ratio) or HCN2 channels either manually or mediated by an injection robot (RoboInject®). The injected oocytes were incubated at 18 °C for up to 6 days in Barth's medium containing (in mM) 84 NaCl, 1 KCl, 2.4 NaHCO3, 0.82 MgSO4, 0.41 CaCl2, 0.33 Ca(NO3)2, 7.5 TRIS, cefuroxime (4.0 μg/mL) and penicillin/streptomycin (100 μg/mL), pH 7.4.
(§5) Electrophysiology: Macroscopic currents were recorded in inside‐out patches of the oocytes expressing hundreds to several thousand of the desired channels by using the patch‐clamp technique. The patch pipettes were pulled from quartz tubing (P‐2000, Sutter Instrument, Novato, USA) with an outer and inner diameter of 1.0 and 0.7 mm (VITROCOM, New Jersey, USA). The corresponding pipette resistance was 0.9–2.3 MΩ. The bath and pipette solution contained (in mM): 150 KCl, 1 EGTA, 20 HEPES (pH 7.4) for CNG channel measurements. For HCN channel measurements the bath solution contained (in mM): 100 KCl, 10 EGTA, 10 HEPES (pH 7.2) and the pipette (in mM) 120 KCl, 10 HEPES, 1 CaCl2 (pH 7.2). All experiments were performed at room temperature by using an Axopatch 200B amplifier (Axon Instruments, Foster City, CA, USA). Electrophysiology was controlled by the Patchmaster‐software (HEKA Elektronik Dr. Schulze GmbH, Lambrecht, Germany). The sampling rate was 5 kHz and the filter implemented in the amplifier (4‐pole Bessel) was set to 2 kHz. Measurements in HCN2 channels were started 3.5 minutes after patch excision, to minimize run down phenomena.18 The solutions with the different ligand concentrations to be studied were applied by a multi‐barrel device to the patches with a flow rate of 0.8 to 1.2 mL/min. The concentration of the fluorescent ligands was verified by UV/Vis spectroscopy.
(§6) where I is the actual current amplitude and I max the maximum current amplitude at saturating concentration of each cyclic nucleotide. EC 50 is the ligand concentration generating half maximum current and H a the respective Hill coefficient.

[3] = target: T3, heterotetrameric olfactory CNG channels (Rattus norvegicus, UniProt A0A8I5ZN27+Q00195+Q64359); test: Confocal patch-clamp fluorometry (cPCF): ligand binding and activation, heterotetrameric CNG channels; conditions: Figure 4A
T3 construct: expressed in transfected cells; host or cells: Xenopus laevis oocytes injected with cRNA (CNGA2:CNGA4:CNGB1b at 2:1:1)
Text: as §1, §2

[4] = target: T4, Homotetrameric CNGA2 channels (Rattus norvegicus, UniProt Q00195); test: Patch-clamp activation of homotetrameric CNGA2 channels, inside-out patches of Xenopus oocytes
T4 construct: expressed in transfected cells; host or cells: Xenopus laevis oocytes injected with CNGA2 cRNA
T4 sequence (Q00195 1-664): T1 sequence (Q00195 1-664)
Text: Moreover, we studied the effect of the nucleotide derivatives on homotetrameric CNGA2 channels.
as §3, §4, §5, §6

[5] = unit only in the axis title [10] (μM)

T2 sequence (Q64359 whole entry, one chain of several): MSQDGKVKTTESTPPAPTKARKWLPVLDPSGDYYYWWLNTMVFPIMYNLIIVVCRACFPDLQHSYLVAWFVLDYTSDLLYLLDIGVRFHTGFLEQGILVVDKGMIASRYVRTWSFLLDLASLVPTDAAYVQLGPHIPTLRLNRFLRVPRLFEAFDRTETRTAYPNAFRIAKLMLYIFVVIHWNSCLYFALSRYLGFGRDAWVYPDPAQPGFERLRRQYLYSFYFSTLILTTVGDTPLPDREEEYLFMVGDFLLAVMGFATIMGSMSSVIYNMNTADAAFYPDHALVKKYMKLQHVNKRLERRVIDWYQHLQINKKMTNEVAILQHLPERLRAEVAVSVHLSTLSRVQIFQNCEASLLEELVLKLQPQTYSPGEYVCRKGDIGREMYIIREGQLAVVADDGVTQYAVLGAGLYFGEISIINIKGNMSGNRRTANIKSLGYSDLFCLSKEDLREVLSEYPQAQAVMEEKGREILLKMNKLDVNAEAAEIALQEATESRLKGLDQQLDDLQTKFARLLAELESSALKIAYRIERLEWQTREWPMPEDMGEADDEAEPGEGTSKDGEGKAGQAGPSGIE
T2 sequence (A0A8I5ZN27 1-858 isoform A0A8I5ZN27-2, one chain of several): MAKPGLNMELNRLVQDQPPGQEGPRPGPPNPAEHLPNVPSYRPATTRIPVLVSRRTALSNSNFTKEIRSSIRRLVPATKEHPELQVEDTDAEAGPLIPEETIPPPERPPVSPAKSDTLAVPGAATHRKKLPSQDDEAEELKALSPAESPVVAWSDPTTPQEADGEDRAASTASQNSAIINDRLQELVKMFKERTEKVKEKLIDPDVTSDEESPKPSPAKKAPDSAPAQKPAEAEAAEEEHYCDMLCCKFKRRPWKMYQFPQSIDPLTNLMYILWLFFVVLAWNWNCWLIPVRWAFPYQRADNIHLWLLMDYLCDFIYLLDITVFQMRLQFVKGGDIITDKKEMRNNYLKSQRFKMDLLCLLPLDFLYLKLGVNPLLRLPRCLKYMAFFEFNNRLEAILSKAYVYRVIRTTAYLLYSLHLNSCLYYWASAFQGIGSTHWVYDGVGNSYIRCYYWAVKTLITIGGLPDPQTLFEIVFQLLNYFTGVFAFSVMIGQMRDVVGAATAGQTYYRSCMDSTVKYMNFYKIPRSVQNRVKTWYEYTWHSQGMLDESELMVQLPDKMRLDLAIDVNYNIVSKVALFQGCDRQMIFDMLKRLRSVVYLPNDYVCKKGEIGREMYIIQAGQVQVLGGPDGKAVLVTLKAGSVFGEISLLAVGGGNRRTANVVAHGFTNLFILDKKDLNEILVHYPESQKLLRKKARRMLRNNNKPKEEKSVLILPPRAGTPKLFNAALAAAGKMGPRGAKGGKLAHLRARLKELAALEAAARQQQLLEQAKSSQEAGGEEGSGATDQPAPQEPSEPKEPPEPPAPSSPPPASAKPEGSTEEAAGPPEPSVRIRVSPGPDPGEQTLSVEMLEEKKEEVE
T3 sequence (Q64359 whole entry, one chain of several): as the sequence (Q64359 whole entry, one chain of several) above
T3 sequence (A0A8I5ZN27 1-858 isoform A0A8I5ZN27-2, one chain of several): as the sequence (A0A8I5ZN27 1-858 isoform A0A8I5ZN27-2, one chain of several) above

CC1(C)C2=C3C=C4C5=[N+](CCC4OC3CCN2c2ccc(CC(=O)NCCCCCc3ccc(Sc4nc6c(=O)[nH]c(N)nc6n4[C@@H]4O[C@@H]6COP(=O)(O)O[C@H]6[C@H]4O)cc3)cc21)c1ccc(S(=O)(=O)[O-])cc1C5(C)C (stereo partly drawn) [Compound 10]
Hb (Hill coefficient of binding, cPCF) [1]: 1.43 | EC50 [1, 5]: 1.17 ± 0.07 µM | H a (Hill coefficient of activation) [2]: 2.32±0.16 | EC50 ([2]; concentration of half maximum activation): 630 ± 20 nM | Hb (Hill coefficient of binding, cPCF) [3]: 1.55 | EC50 [3, 5]: 1.03 ± 0.04 µM | EC 50 (in words) [4]: nanomolar range | H a (Hill coefficient of activation) ([4]; inside-out patches): 4.03±0.12 | EC50 ([4]; inside-out patches, concentration of half maximum activation): 650 ± 10 nM
